In ChEMBL document CHEMBL5543097, “Synthesis and structure-activity relationships of novel 14-membered 2-fluoro ketolides with structural modification at the C11 position” (Eur J Med Chem, 2024):
≈ marks a conversion by molar mass, not a printed value.

How the values were obtained:
Streptococcus pyogenes = assay: Antibacterial activity against erythromycin-resistant Streptococcus pyogenes ATCC 19615 assessed as inhibition of visible bacterial growth incubated for 18 hrs by broth microdilution method; format: functional
Streptococcus agalactiae [1] = assay: Antibacterial activity against erythromycin-resistant Streptococcus agalactiae 19-9 assessed as inhibition of visible bacterial growth incubated for 18 hrs by broth microdilution method; format: functional
Streptococcus pneumoniae [2] = assay: Antibacterial activity against erythromycin-resistant Streptococcus pneumoniae SPN19-14 assessed as inhibition of visible bacterial growth incubated for 18 hrs by broth microdilution method; format: functional
Streptococcus pneumoniae [3] = assay: Antibacterial activity against erythromycin-resistant Streptococcus pneumoniae SPN19-13 assessed as inhibition of visible bacterial growth incubated for 18 hrs by broth microdilution method; format: functional
Streptococcus pneumoniae [4] = assay: Antibacterial activity against erythromycin-resistant Streptococcus pneumoniae SPN19-8 assessed as inhibition of visible bacterial growth incubated for 18 hrs by broth microdilution method; format: functional
[5] = system: Staphylococcus epidermidis; assay: Antibacterial activity against erythromycin-resistant Staphylococcus epidermidis 19-11 assessed as inhibition of visible bacterial growth incubated for 18 hrs by broth microdilution method; format: functional
[6] = system: Staphylococcus epidermidis; assay: Antibacterial activity against erythromycin-resistant Staphylococcus epidermidis 19-9 assessed as inhibition of visible bacterial growth incubated for 18 hrs by broth microdilution method; format: functional
[7] = system: Staphylococcus epidermidis; assay: Antibacterial activity against erythromycin-resistant Staphylococcus epidermidis 19-8 assessed as inhibition of visible bacterial growth incubated for 18 hrs by broth microdilution method; format: functional
[8] = system: Staphylococcus epidermidis; assay: Antibacterial activity against erythromycin-resistant Staphylococcus epidermidis 19-6 assessed as inhibition of visible bacterial growth incubated for 18 hrs by broth microdilution method; format: functional
[9] = system: Staphylococcus epidermidis; assay: Antibacterial activity against erythromycin-resistant Staphylococcus epidermidis 19-4 assessed as inhibition of visible bacterial growth incubated for 18 hrs by broth microdilution method; format: functional
[10] = system: Staphylococcus epidermidis; assay: Antibacterial activity against erythromycin-resistant Staphylococcus epidermidis 19-5 assessed as inhibition of visible bacterial growth incubated for 18 hrs by broth microdilution method; format: functional
Moraxella catarrhalis [11] = assay: Antibacterial activity against Moraxella catarrhalis BCA 19-5 assessed as inhibition of bacterial growth incubated for 24 hrs by CLSI based broth microdilution method; format: functional; conditions: Moraxella catarrhalis, BCA 19-5, 24 h, read-out: MIC
Moraxella catarrhalis [12] = assay: Antibacterial activity against Moraxella catarrhalis BCA 19-6 assessed as inhibition of bacterial growth incubated for 24 hrs by CLSI based broth microdilution method; format: functional; conditions: Moraxella catarrhalis, BCA 19-6, 24 h, read-out: MIC
Moraxella catarrhalis [13] = assay: Antibacterial activity against Moraxella catarrhalis BCA 19-31 assessed as inhibition of bacterial growth incubated for 24 hrs by CLSI based broth microdilution method; format: functional; conditions: BCA 19-31, 24 h
Haemophilus influenzae [14] = assay: Antibacterial activity against Haemophilus influenzae HIN 19-15 assessed as inhibition of bacterial growth incubated for 20 to 24 hrs by CLSI based broth microdilution method; format: functional; conditions: time 20-24 hrs
Haemophilus influenzae [15] = assay: Antibacterial activity against Haemophilus influenzae HIN 19-18 assessed as inhibition of bacterial growth incubated for 20 to 24 hrs by CLSI based broth microdilution method; format: functional; conditions: HIN 19-18, time 20-24 hrs
Haemophilus influenzae [16] = assay: Antibacterial activity against Haemophilus influenzae HIN 20-18 assessed as inhibition of bacterial growth incubated for 20 to 24 hrs by CLSI based broth microdilution method; format: functional; conditions: time 20-24 hrs
[17] = Cytotoxicity against mouse AML12 cells assessed as reduction in cell viability incubated for 48 hrs by MTT assay; format: toxicity, cell-based
Streptococcus agalactiae [18] = assay: Antibacterial activity against erythromycin-resistant Streptococcus agalactiae 19-8 assessed as inhibition of visible bacterial growth incubated for 18 hrs by broth microdilution method; format: functional

| Compound | MIC (Streptococcus pyogenes) | MIC (Streptococcus agalactiae [1]) | MIC (Streptococcus pneumoniae [2]) | MIC (Streptococcus pneumoniae [3]) | MIC (Streptococcus pneumoniae [4]) | MIC [5] | MIC [6] | MIC [7] | MIC [8] | MIC [9] | MIC [10] | MIC (Moraxella catarrhalis [11]) | MIC (Moraxella catarrhalis [12]) | MIC (Moraxella catarrhalis [13]) | MIC (Haemophilus influenzae [14]) | MIC (Haemophilus influenzae [15]) | MIC (Haemophilus influenzae [16]) | CC50 at 48 h [17] | MIC (Streptococcus agalactiae [18]) |
| --- | --- | --- | --- | --- | --- | --- | --- | --- | --- | --- | --- | --- | --- | --- | --- | --- | --- | --- | --- |
| CC[C@H]1OC(=O)[C@@](C)(F)C(=O)[C@H](C)[C@@H](O[C@@H]2O[C@H](C)C[C@H](N(C)C)[C@H]2O)[C@](C)(OC)C[C@@H](C)C(=O)[C@H](C)[C@H]2N(CCCOC(=O)Nc3ccccc3Cl)C(=O)O[C@]12C | < 0.03 µg/mL | 1 µg/mL (≈ 1.19 µM) | 0.25 µg/mL (≈ 0.297 µM) | 0.25 µg/mL (≈ 0.297 µM) | 0.25 µg/mL (≈ 0.297 µM) | < 0.06 µg/mL | 0.25 µg/mL (≈ 0.297 µM) | 0.125 µg/mL (≈ 0.148 µM) | 0.125 µg/mL (≈ 0.148 µM) | 0.06 µg/mL (≈ 0.0712 µM) | < 0.03 µg/mL | 0.25 µg/mL (≈ 0.297 µM) | 0.5 µg/mL (≈ 0.594 µM) | 1.12 µg/mL (≈ 1.34 µM) | 8 µg/mL (≈ 9.5 µM) | 8 µg/mL (≈ 9.5 µM) | 16 µg/mL (≈ 19 µM) | 36.2 µM |  |
| CC[C@H]1OC(=O)[C@@](C)(F)C(=O)[C@H](C)[C@@H](O[C@@H]2O[C@H](C)C[C@H](N(C)C)[C@H]2O)[C@](C)(OC)C[C@@H](C)C(=O)[C@H](C)[C@H]2N(CCCOC(=O)Nc3cc(C)ccc3C)C(=O)O[C@]12C |  |  |  |  |  |  |  |  |  |  |  | 0.125 µg/mL (≈ 0.15 µM) | 0.125 µg/mL (≈ 0.15 µM) | 0.125 µg/mL (≈ 0.15 µM) | 8 µg/mL (≈ 9.57 µM) | 8 µg/mL (≈ 9.57 µM) | 16 µg/mL (≈ 19.1 µM) | 33.1 µM |  |
| CC[C@H]1OC(=O)[C@@](C)(F)C(=O)[C@H](C)[C@@H](O[C@@H]2O[C@H](C)C[C@H](N(C)C)[C@H]2O)[C@](C)(OC)C[C@@H](C)C(=O)[C@H](C)[C@H]2N(CCCOC(=O)Nc3ccc(Cl)cc3C)C(=O)O[C@]12C | < 0.03 µg/mL | 0.5 µg/mL (≈ 0.584 µM) | 0.125 µg/mL (≈ 0.146 µM) | 0.125 µg/mL (≈ 0.146 µM) | 0.25 µg/mL (≈ 0.292 µM) | 0.06 µg/mL (≈ 0.0701 µM) | < 0.03 µg/mL | 0.125 µg/mL (≈ 0.146 µM) | 0.125 µg/mL (≈ 0.146 µM) | 0.03 µg/mL (≈ 0.035 µM) | < 0.03 µg/mL | 0.125 µg/mL (≈ 0.146 µM) | 0.25 µg/mL (≈ 0.292 µM) | 0.125 µg/mL (≈ 0.146 µM) | 8 µg/mL (≈ 9.34 µM) | 4 µg/mL (≈ 4.67 µM) | 16 µg/mL (≈ 18.7 µM) | 12.8 µM |  |
| CCOc1ccc(NC(=O)OCCCN2C(=O)O[C@]3(C)[C@@H](CC)OC(=O)[C@@](C)(F)C(=O)[C@H](C)[C@@H](O[C@@H]4O[C@H](C)C[C@H](N(C)C)[C@H]4O)[C@](C)(OC)C[C@@H](C)C(=O)[C@H](C)[C@@H]23)cc1 | < 0.03 µg/mL | 2 µg/mL (≈ 2.35 µM) | 0.5 µg/mL (≈ 0.587 µM) | 0.5 µg/mL (≈ 0.587 µM) | 0.25 µg/mL (≈ 0.293 µM) | 0.125 µg/mL (≈ 0.147 µM) | 0.5 µg/mL (≈ 0.587 µM) | 0.25 µg/mL (≈ 0.293 µM) | 0.25 µg/mL (≈ 0.293 µM) | 0.5 µg/mL (≈ 0.587 µM) | 0.06 µg/mL (≈ 0.0704 µM) | 0.5 µg/mL (≈ 0.587 µM) | 1 µg/mL (≈ 1.17 µM) | 0.5 µg/mL (≈ 0.587 µM) | > 16 µg/mL | 16 µg/mL (≈ 18.8 µM) | > 16 µg/mL | 36.5 µM |  |
| CC[C@H]1OC(=O)[C@@](C)(F)C(=O)[C@H](C)[C@@H](O[C@@H]2O[C@H](C)C[C@H](N(C)C)[C@H]2O)[C@](C)(OC)C[C@@H](C)C(=O)[C@H](C)[C@H]2N(CCCOC(=O)Nc3ccc(-c4ncccn4)cc3)C(=O)O[C@]12C | < 0.03 µg/mL | 4 µg/mL (≈ 4.51 µM) | 0.25 µg/mL (≈ 0.282 µM) | 0.5 µg/mL (≈ 0.564 µM) | 0.25 µg/mL (≈ 0.282 µM) | < 0.03 µg/mL | 0.125 µg/mL (≈ 0.141 µM) | 0.125 µg/mL (≈ 0.141 µM) | 0.125 µg/mL (≈ 0.141 µM) | 0.06 µg/mL (≈ 0.0677 µM) | < 0.03 µg/mL | 0.25 µg/mL (≈ 0.282 µM) | 45 µg/mL (≈ 50.8 µM) | 0.25 µg/mL (≈ 0.282 µM) | 14 µg/mL (≈ 15.8 µM) | 16 µg/mL (≈ 18.1 µM) | > 16 µg/mL | 20.4 µM |  |
| CC[C@H]1OC(=O)[C@@](C)(F)C(=O)[C@H](C)[C@@H](O[C@@H]2O[C@H](C)C[C@H](N(C)C)[C@H]2O)[C@](C)(OC)C[C@@H](C)C(=O)[C@H](C)[C@H]2N(CCCOC(=O)Nc3cccc(Cl)c3)C(=O)O[C@]12C | < 0.03 µg/mL | 0.5 µg/mL (≈ 0.594 µM) | 0.125 µg/mL (≈ 0.148 µM) | 0.125 µg/mL (≈ 0.148 µM) | 0.125 µg/mL (≈ 0.148 µM) | < 0.03 µg/mL | 0.125 µg/mL (≈ 0.148 µM) | < 0.03 µg/mL | < 0.03 µg/mL | 0.03 µg/mL (≈ 0.0356 µM) | < 0.03 µg/mL | 0.125 µg/mL (≈ 0.148 µM) | 2.25 µg/mL (≈ 2.67 µM) |  | 8 µg/mL (≈ 9.5 µM) | 4 µg/mL (≈ 4.75 µM) | 16 µg/mL (≈ 19 µM) | 43.3 µM |  |
| CC[C@H]1OC(=O)[C@@](C)(F)C(=O)[C@H](C)[C@@H](O[C@@H]2O[C@H](C)C[C@H](N(C)C)[C@H]2O)[C@](C)(OC)C[C@@H](C)C(=O)[C@H](C)[C@H]2N(CCCOC(=O)Nc3cc(C)oc3C(F)(F)F)C(=O)O[C@]12C |  |  |  |  |  |  |  |  |  |  |  | 0.5 µg/mL (≈ 0.568 µM) | 0.5 µg/mL (≈ 0.568 µM) | 0.5 µg/mL (≈ 0.568 µM) | 0.5 µg/mL (≈ 0.568 µM) | 4 µg/mL (≈ 4.55 µM) | > 16 µg/mL | 35.9 µM |  |
| CC[C@H]1OC(=O)[C@@](C)(F)C(=O)[C@H](C)[C@@H](O[C@@H]2O[C@H](C)C[C@H](N(C)C)[C@H]2O)[C@](C)(OC)C[C@@H](C)C(=O)[C@H](C)[C@H]2N(CCCOC(=O)Nc3ccc(Cl)cc3)C(=O)O[C@]12C | < 0.03 µg/mL | 1 µg/mL (≈ 1.19 µM) | 0.125 µg/mL (≈ 0.148 µM) | 0.125 µg/mL (≈ 0.148 µM) | 0.25 µg/mL (≈ 0.297 µM) | < 0.03 µg/mL | 0.125 µg/mL (≈ 0.148 µM) | 0.03 µg/mL (≈ 0.0356 µM) | < 0.03 µg/mL | 0.03 µg/mL (≈ 0.0356 µM) | < 0.03 µg/mL | 9.12 µg/mL (≈ 10.8 µM) | 0.25 µg/mL (≈ 0.297 µM) | 11.1 µg/mL (≈ 13.2 µM) | 8 µg/mL (≈ 9.5 µM) | 8 µg/mL (≈ 9.5 µM) | 16 µg/mL (≈ 19 µM) | 26 µM |  |
| CC[C@H]1OC(=O)[C@@](C)(F)C(=O)[C@H](C)[C@@H](O[C@@H]2O[C@H](C)C[C@H](N(C)C)[C@H]2O)[C@](C)(OC)C[C@@H](C)C(=O)[C@H](C)[C@H]2N(CCCOC(=O)Nc3cc(C)cc(C)c3)C(=O)O[C@]12C | < 0.03 µg/mL | 4 µg/mL (≈ 4.78 µM) | 1 µg/mL (≈ 1.2 µM) | 0.5 µg/mL (≈ 0.598 µM) | 0.5 µg/mL (≈ 0.598 µM) | 0.25 µg/mL (≈ 0.299 µM) | 0.5 µg/mL (≈ 0.598 µM) | 0.25 µg/mL (≈ 0.299 µM) | 0.5 µg/mL (≈ 0.598 µM) | < 0.25 µg/mL | < 0.03 µg/mL | 1 µg/mL (≈ 1.2 µM) | 1 µg/mL (≈ 1.2 µM) | 0.5 µg/mL (≈ 0.598 µM) | 16 µg/mL (≈ 19.1 µM) | 16 µg/mL (≈ 19.1 µM) |  | 25.5 µM | 0.06 µg/mL (≈ 0.0718 µM) |
